Measurements published in PubChem BioAssay (NCI).
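Assay format: 96-well plates, 48-hour exposure. Definition used: TGI = concentration required for complete inhibition of growth.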

How the values were obtained:
Experiment in all cases: DTP human tumour cell line panel, 48 h
MDA-MB-435 = test system: MDA-MB-435
DU-145 prostate = test system: DU-145 prostate
MALME-3M melanoma = test system: MALME-3M melanoma
OVCAR-4 ovarian = test system: OVCAR-4 ovarian
NCI/ADR-RES ovarian = test system: NCI/ADR-RES ovarian
UO-31 renal = test system: UO-31 renal
CAKI-1 renal = test system: CAKI-1 renal
SK-MEL-5 melanoma = test system: SK-MEL-5 melanoma
MDA-N = test system: MDA-N
HOP-62 NSCLC = test system: HOP-62 NSCLC
RPMI-8226 leukemia = test system: RPMI-8226 leukemia
IGROV1 ovarian = test system: IGROV1 ovarian
K-562 leukemia = test system: K-562 leukemia
U251 CNS = test system: U251 CNS
HCT-116 colon = test system: HCT-116 colon
SF-539 CNS = test system: SF-539 CNS
M14 melanoma = test system: M14 melanoma
PC-3 prostate = test system: PC-3 prostate
HS 578T breast = test system: HS 578T breast

Row | SMILES | TGI (MDA-MB-435) [µM] | TGI (DU-145 prostate) [µM] | TGI (MALME-3M melanoma) [µM] | TGI (OVCAR-4 ovarian) [µM] | TGI (NCI/ADR-RES ovarian) [µM] | TGI (UO-31 renal) [µM] | TGI (CAKI-1 renal) [µM] | TGI (SK-MEL-5 melanoma) [µM] | TGI (MDA-N) [µM] | TGI (HOP-62 NSCLC) [µM] | TGI (RPMI-8226 leukemia) [µM] | TGI (IGROV1 ovarian) [µM] | TGI (K-562 leukemia) [µM] | TGI (U251 CNS) [µM] | TGI (HCT-116 colon) [µM] | TGI (SF-539 CNS) [µM] | TGI (M14 melanoma) [µM] | TGI (PC-3 prostate) [µM] | TGI (HS 578T breast) [µM]
1 | CC1=C(c2ccc(C)cc2)NC(=S)C(C)C(c2ccc(C)cc2)=N1 (stereo not given) | > 100 | > 100 | > 100 | > 100 | > 100 | > 100 | > 100 | > 100 | > 100 | > 100 | > 100 | > 100 | > 100 | > 100 | > 100 | > 100 |  |  | 
2 | CCC(C)C(NC(=O)c1c2ccccc2nc2ccccc12)C(=O)O (stereo not given) | > 100 | > 100 | > 100 | > 100 | > 100 | > 100 | > 100 | > 100 |  | > 100 | > 100 | > 100 | > 100 | > 100 | > 100 | > 100 | > 100 | > 100 | 
3 | COC(=O)C(C(=O)C(=O)Nc1ccc([N+](=O)[O-])cc1)c1nc2cc(C)c(C)cc2[nH]c1=O (stereo not given) |  |  | > 100 | > 100 |  | > 100 | > 100 | > 100 |  | > 100 | > 100 | > 100 | > 100 | > 100 | > 100 | > 100 | > 100 |  | 
4 | O=C1CCCCCCCCCCC1CN(Cc1ccccc1)Cc1ccccc1 (stereo not given) | > 100 | > 100 | 75.2 | > 100 |  | > 100 |  | 32.4 | > 100 | > 100 | > 100 | > 100 | > 100 | 49.6 | 55.9 | > 100 | > 100 | > 100 | > 100
5 | CC(=O)O[C@]12CCCCC1C1(O)C(O)CCCC[C@H]12 (stereo not given in full) |  |  | > 100 | > 100 |  | > 100 |  | > 100 |  | > 100 | > 100 |  | > 100 | > 100 | > 100 |  | > 100 |  | 
6 | CSC1CC2C(CC1(C)SC)C2(C)C (stereo not given) |  |  | > 100 | > 100 |  | > 100 | > 100 | 78.9 |  | > 100 | 93.4 | > 100 | 81.8 | > 100 |  | > 100 | > 100 |  | 
7 | COC(=O)C1CCC[C@H]2C(CO)=C(C)C(=O)[C@@H]12 (stereo not given in full) |  |  | > 100 | > 100 |  | > 100 | > 100 | > 100 |  | > 100 | > 100 | > 100 | > 100 | > 100 | > 100 | > 100 | > 100 |  | 
8 | N#Cc1nc(NC(=O)c2ccccc2)sc1N | > 10 | > 10 | > 10 | > 10 | > 10 | > 10 | > 10 | > 10 | > 10 | > 10 | > 10 | > 10 | > 10 | > 10 | > 10 | > 10 | > 10 | > 10 | 
9 | Cc1ccc(C(O)/C(=N/N)c2nc3ccc([N+](=O)[O-])cc3[nH]c2=O)cc1 (stereo not given) |  |  | > 100 | > 100 |  | > 100 |  | > 100 |  | > 100 | > 100 | > 100 | > 100 | > 100 | > 100 |  | > 100 |  | 
10 | O=C1C=C(NCCc2cc(Cl)c(O)c(Cl)c2)C(=O)c2[nH]cnc21 | 30.3 |  | 15.9 |  | > 100 | > 100 |  | 31.5 | 33.8 | > 100 | > 100 | 38.8 | 55.4 | > 100 | > 100 | > 100 | 26.7 | > 100 | > 100
11 | Cc1ccc(-c2n[nH]c(=O)n2N2C(=O)C=CC2=O)cc1 | > 100 | > 100 | > 100 | > 100 | > 100 |  | > 100 | > 100 |  | > 100 |  | > 100 | > 100 | > 100 | > 100 | > 100 | > 100 | > 100 | > 100
12 | Nc1ccc(-c2nc3ccc(Cc4ccc5nc(-c6ccc(N)cc6)oc5c4)cc3o2)cc1 | > 100 | > 100 | > 100 | > 100 | > 100 | > 100 | > 100 |  | > 100 |  | > 100 |  | > 100 | > 100 | > 100 | > 100 | > 100 | > 100 | 
13 | COC1CC(n2ccc(=O)[nH]c2=O)OC1CO (stereo not given) | > 100 | > 100 | > 100 | > 100 | > 100 | > 100 | > 100 | > 100 | > 100 | > 100 |  | > 100 | > 100 | > 100 | > 100 | > 100 | > 100 | > 100 | 
14 | CN(C)C(=O)C(F)(F)C(c1ccc(C(F)(F)F)cc1)C1C(=O)N(C)C(=O)N(C)C1=O (stereo not given) | > 100 | > 100 |  | > 100 | > 100 | > 100 | > 100 | > 100 |  | > 100 | > 100 |  |  | > 100 | > 100 |  | > 100 | > 100 | 
15 | NN/C(=N\S(=O)(=O)c1cccc2nsnc12)Nc1ccc(Cl)cc1 |  | > 100 |  | > 100 | > 100 | > 100 | > 100 | > 100 | > 100 | > 100 | > 100 | > 100 | > 100 | > 100 | > 100 | > 100 | > 100 | > 100 | 
16 | COc1cc(/C=C2/C(=O)N=C(NC(C)=O)N2C)ccc1OC(C)=O | > 100 | > 100 |  | > 100 | > 100 | > 100 | > 100 | > 100 | > 100 | > 100 |  | > 100 |  | > 100 | > 100 | > 100 | > 100 | > 100 | 
